Laboratory results: patent US11730712B2, “Functionalized long-chain hydrocarbon mono- and di-carboxylic acids and derivatives thereof, and their use for the prevention or treatment of disease” (ESPERVITA THERAPEUTICS, INC., priority 2021, dated 2023)
“And” between values parts separate entries of the source, which are not always exact repeats. Identical values can stand only once.

Assays:
Hep3B cells = experiment: Hep3B cell proliferation; assay type: cell-based; conditions: with or without regorafenib (1.5 μM)
Description: FIG. 36 show anti-proliferative effect of illustrative compounds of the invention in Hep3B cells.
Each bar represents the mean±the SEM, n=5. *p<0.03, **p<0.002, ***p<0.0002, ****p<0.0001, One-way ANOVA followed by Tukey's multiple comparison.

[1] = test system: human hematopoietic stem and progenitor cells (CD45+CD34+); experiment: Megakaryopoiesis and platelet production in cultured hematopoietic stem and progenitor cells; assay type: cell-based; conditions: 30 μM, added day 6
Description: Materials and Methods. Hematopoietic stem and progenitor cells, identified as viable CD45+CD34+ cells, were isolated from peripheral blood of healthy donors by a method known in the art (see Ivetic N. Nazi I, Karim N et al. Producing megakaryocytes from a human peripheral blood source. Transfusion 2016; 56:1066-74). These isolated cells were then analyzed for purity before being expanded for four days using a commercial supplement to increase their cell population. After expansion, the cells were analyzed for purity, washed, and stimulated with a saturating concentration of thrombopoietin (20 ng/mL) and stem cell factor (50 ng/mL) to begin megakaryopoiesis. Compound I-32 and Compound I-1 were added at this timepoint at a concentration of 30 μM. The cells were then cultured for 8 days to develop into megakaryocytes and analyzed via flow cytometry to assess their number, maturity, and platelet count as defined by CD41a, CD42b and Calcein-AM expression. In addition, Compound I-32 and Compound I-1 were added to cells during the later stages of development (day 6) to assess their impact on maturation. ABT-737 ([…]) was used as a positive control and a DMSO vehicle control (<0.15% v/v) was the negative control. […]
Statistical analysis. Statistical analyses were carried out by comparing effects on measured parameters in comparison to vehicle control. […]

mouse kidney = experiment: Kidney histology in DEN NASH-HCC mice after 4 weeks of treatment; assay type: in vivo; design: key to Tubular injury score, Average / Tubular mitoses score, Average / Tubular vacuoles score, Average / Interstitial inflammation score, Average / Interstitial fibrosis score, Average / Glomerular score, Average: 0 = not present to 5 = severe, overwhelming change; mean of mice; key to Tubular mitoses score, individual mice / Interstitial inflammation score, individual mice / Interstitial fibrosis score, individual mice / Glomerular score, individual mice / Tubular injury score, individual mice / Tubular vacuoles score, individual mice: 0—not present; 1—minimal, inconspicuous change; 2—slight, noticeable but not a prominent feature; 3—moderate, prominent feature; 4—marked, dominant but not overwhelming feature; 5—severe, overwhelming change; conditions: for Glomerular score, individual mice / Interstitial fibrosis score, individual mice / Interstitial inflammation score, individual mice / Tubular injury score, individual mice / Tubular mitoses score, individual mice / Tubular vacuoles score, individual mice / Glomerular score, Average / Interstitial fibrosis score, Average / Interstitial inflammation score, Average / Tubular injury score, Average / Tubular mitoses score, Average / Tubular vacuoles score, Average: kidney; for Glomerular score, Average / Interstitial fibrosis score, Average / Interstitial inflammation score, Average / Tubular injury score, Average / Tubular mitoses score, Average / Tubular vacuoles score, Average: 8 mice
Description: Kidney Histology. Following fixation with 10% neutral buffered formalin for 46 hours, kidneys were cleaved longitudinally through hilium and immersed in 70% ethanol. Kidneys were then processed, paraffin embedded, serially sectioned and stained with haematoxylin and eosin (H&E) and Masson's Trichrome (MTC) by the McMaster Immunology Research Centre histology Core Facility. Blinded kidney histological scores for tubular injury, tubular mitoses, tubular vacuoles, interstitial inflammation, interstitial fibrosis, glomerular were assigned by pathologists.
Kidney Histology. […] In Table 15, pathologist's scoring is as follows: 0—not present; 1—minimal, inconspicuous change; 2—slight, noticeable but not a prominent feature; 3—moderate, prominent feature; 4—marked, dominant but not overwhelming feature; 5—severe, overwhelming change.

Row | Compound | effect on proliferation (Hep3B cells) | inhibition of megakaryopoiesis/platelet parameters after addition on day 6 of culture [1] | kidney pathological differences vs Vehicle (mouse kidney) | Glomerular score, individual mice (mouse kidney) | Interstitial fibrosis score, individual mice (mouse kidney) | Interstitial inflammation score, individual mice (mouse kidney) | Tubular injury score, individual mice (mouse kidney) | Tubular mitoses score, individual mice (mouse kidney) | Tubular vacuoles score, individual mice (mouse kidney) | Glomerular score, Average (mouse kidney) | Interstitial fibrosis score, Average (mouse kidney) | Interstitial inflammation score, Average (mouse kidney) | Tubular injury score, Average (mouse kidney) | Tubular mitoses score, Average (mouse kidney) | Tubular vacuoles score, Average (mouse kidney)
1 | CC(C)(CCCCc1ccc(CCCCC(C)(C)C(=O)O)cc1)C(=O)O [Compound I-1, 6-[4-(5-carboxy-5-methylhexyl)-phenyl]-2,2-dimethylhexanoic acid] | anti-proliferation effect | no inhibition detected | no pathological differences | 0 (3×) and 1 (2×) and 0.5 (3×) | 1 (4×) and 0.5 (2×) and 0 and 1.5 | 0 (5×) and 0.5 (3×) | 1.5 and 1 and 0.5 (4×) and 0 (2×) | 1 and 0 (3×) and 0.5 (4×) | 3.5 and 1.5 (3×) and 3 and 0.5 (2×) and 1 | 0.44 | 1.0 | 0.19 | 0.56 | 0.38 | 1.63
2 | CC(C)(CCCCc1cccc(CCCCC(C)(C)C(=O)O)c1)C(=O)O [Compound I-32, 6-[3-(5-carboxy-5-methylhexyl)-phenyl]-2,2-dimethylhexanoic acid] | anti-proliferation effect | no inhibition detected | no pathological differences | 0 and 0.5 (5×) and 1 (2×) | 0.5 (2×) and 1 (3×) and 2 and 1.5 (2×) | 0 (3×) and 2.5 and 1 and 1.5 and 0.5 (2×) | 0 (3×) and 1.5 (4×) and 1 | 0 (4×) and 1 (2×) and 0.5 (2×) | 0.5 and 3.5 and 1.5 and 3 and 2 and 1 (3×) | 0.56 | 1.13 | 0.75 | 0.88 | 0.38 | 1.69
